The values that follow come from ChEMBL document CHEMBL3739317, “Design of new phenothiazine-thiadiazole hybrids via molecular hybridization approach for the development of potent antitubercular agents” (Eur J Med Chem, 2015).

Data set [1] deals with Vero. As to the kind of experiment: Cytotoxicity against African green monkey Vero cells after 72 hrs by MTT assay. Conditions: Chlorocebus sabaeus. It counts as cell-based. (In general: Tetrazolium dyes change colour on reduction, which living cells bring about.)
Data set [2] is described as follows: Selectivity index, ratio of IC50 for African green monkey Vero cells to MIC for Mycobacterium tuberculosis H37Rv ATCC 27294. Format: toxicity, cell-based.
In data set [3] the test system is Mycobacterium tuberculosis. As to the kind of experiment: Antimycobacterial activity against Mycobacterium tuberculosis H37Rv ATCC 27294 after 5 days by microplate alamar blue assay. It counts as functional. To be noted: H37Rv ATCC 27294, 120 h. Background: Resazurin is reduced to fluorescent resorufin, in cell work by metabolically active cells.
Data set [4] relates to Escherichia coli. As to the kind of experiment: Antibacterial activity against Escherichia coli at 75 ug/ml after 18 to 24 hrs by disc diffusion method. It counts as functional. Conditions: read-out: IZ.
The test system of data set [5] is Escherichia coli. Briefly: Antibacterial activity against Escherichia coli at 50 ug/ml after 18 to 24 hrs by disc diffusion method. Format: functional. Conditions: read-out: IZ. (In general: In agar diffusion tests the substance spreads into inoculated agar from a disc or well.)
Data set [6] deals with Staphylococcus aureus. As to the kind of experiment: Antibacterial activity against Staphylococcus aureus at 75 ug/ml after 18 to 24 hrs by disc diffusion method. It counts as functional. Conditions: for zone of inhibition at 75 µg/mL: read-out: IZ.
The subject of data set [7] is Staphylococcus aureus. Briefly: Antibacterial activity against Staphylococcus aureus at 50 ug/ml after 18 to 24 hrs by disc diffusion method. It counts as functional. To be noted: for zone of inhibition at 50 µg/mL: read-out: IZ.
In data set [8] the test system is Pseudomonas aeruginosa. As to the kind of experiment: Antibacterial activity against Pseudomonas aeruginosa at 75 ug/ml after 18 to 24 hrs by disc diffusion method. To be noted: read-out: IZ. It counts as functional.
For data set [9], the system named is Pseudomonas aeruginosa. As to the kind of experiment: Antibacterial activity against Pseudomonas aeruginosa at 50 ug/ml after 18 to 24 hrs by disc diffusion method. It counts as functional. Conditions: read-out: IZ.

Structures are written as SMILES. ≈ marks a conversion by molar mass, not a printed value. Calls of active or inactive are those of the source.

In general, IC50 refers to the point on the concentration scale where inhibition reaches its midpoint. Usually MIC stands for the smallest concentration in the dilution series that meets the test's criterion for growth inhibition. In the case of `CCCc1nn(CC(=O)N2c3ccccc3Sc3ccccc32)c(=N)s1`, in data set [1], the IC50 was found to be 252 µg/mL (≈ 658 µM). For the same compound, the selectivity ratio in [2] was 157. The compound also showed an MIC in data set [3] of 1.6 µg/mL (≈ 4.18 µM). For the same compound, the zone of inhibition at 75 µg/mL in [4] turned out to be 14 mm; in [6], 16 mm; in data set [8] it was 15 mm. Besides, the results for the zone of inhibition at 50 µg/mL in [5], in data set [7] and in [9] were 11 mm, 12 mm and 11 mm, respectively.

Regarding `Cc1ccc(-c2nn(CC(=O)N3c4ccccc4Sc4ccc(Cl)cc43)c(=N)s2)cc1`, inhibition of growth in [3] (MIC) required 50 µg/mL (≈ 108 µM). Besides, the zone of inhibition at 75 µg/mL in data set [4] amounted to 9 mm; in data set [6] it was 12 mm; in data set [8], 7 mm. Besides, the zone of inhibition at 50 µg/mL in [5] was found to be 7 mm; in [7] it was 10 mm; in data set [9] it was 4 mm.

Consider `COc1ccc(-c2nn(CC(=O)N3c4ccccc4Sc4ccc(Cl)cc43)c(=N)s2)cc1OC`, for which the MIC in [3] was 50 µg/mL (≈ 97.8 µM). The zone of inhibition at 75 µg/mL came to 8 mm in [4], 8 mm in data set [6] and 6 mm in data set [8]. Besides, the zone of inhibition at 50 µg/mL came out at 4 mm in [5], 6 mm in data set [7] and 4 mm in data set [9].

In turn, `N=c1sc(-c2ccc(Cl)cc2)nn1CC(=O)N1c2ccccc2Sc2ccc(C(F)(F)F)cc21` gave a minimum inhibitory concentration (MIC) in data set [3] of 25 µg/mL (≈ 48.2 µM). Besides, the zone of inhibition at 75 µg/mL in data set [4] is 12 mm; in [6] it was 13 mm; in [8], 14 mm. The figures for the zone of inhibition at 50 µg/mL in [5], in [7] and in data set [9] were 11 mm, 11 mm and 9 mm, respectively.

In [1], `Cc1nn(CC(=O)N2c3ccccc3Sc3ccc(C(F)(F)F)cc32)c(=N)s1` registered an IC50 of 350 µg/mL (≈ 828 µM). Further, in [2], the selectivity ratio is 219. For the same compound, it took 1.6 µg/mL (≈ 3.79 µM) to inhibit growth in data set [3] (MIC). For the same compound, the zone of inhibition at 75 µg/mL in data set [4] was found to be 20 mm; in [6], 17 mm; in data set [8], 15 mm. The zone of inhibition at 50 µg/mL turned out to be 15 mm in [5], 14 mm in data set [7] and 12 mm in data set [9].

On to `COc1ccc(-c2nn(CC(=O)N3c4ccccc4Sc4ccc(C(F)(F)F)cc43)c(=N)s2)cc1OC`, for which 50 µg/mL (≈ 91.8 µM) was the least that counted as inhibitory in data set [3] (MIC). Besides, the results for the zone of inhibition at 75 µg/mL in data set [4], in [6] and in data set [8] were 10 mm, 7 mm and 9 mm, respectively. The zone of inhibition at 50 µg/mL came out at 8 mm in data set [5], 4 mm in data set [7] and 6 mm in [9].

As to `CC[C@@H](CO)NCCN[C@@H](CC)CO` [ETHAMBUTOL], the minimum inhibitory concentration (MIC) in data set [3] came out at 3.12 µg/mL (≈ 15.3 µM).

For `N=c1sc(-c2ccc(Cl)cc2)nn1CC(=O)N1c2ccccc2Sc2ccccc21`, the MIC in data set [3] came to 50 µg/mL (≈ 111 µM). For the same compound, the zone of inhibition at 75 µg/mL in [4] is 10 mm; in data set [6] it was 9 mm; in data set [8], 10 mm. The zone of inhibition at 50 µg/mL in data set [5] was determined as 8 mm; in data set [7], 7 mm; in [9], 7 mm.

`N=c1sc(-c2ccc(F)cc2)nn1CC(=O)N1c2ccccc2Sc2ccccc21` showed a 50% inhibitory concentration (IC50) in data set [1] of 247 µg/mL (≈ 568 µM). For the same compound, in data set [2], the selectivity ratio amounted to 79.1. For the same compound, 3.12 µg/mL (≈ 7.19 µM) was the least that counted as inhibitory in data set [3] (MIC). Moreover, the zone of inhibition at 75 µg/mL was found to be 11 mm in [4], 8 mm in data set [6] and 12 mm in [8]. Besides, the figures for the zone of inhibition at 50 µg/mL in data set [5], in data set [7] and in [9] were 8 mm, 5 mm and 8 mm, respectively.

As for `CCCc1nn(CC(=O)N2c3ccccc3Sc3ccc(Cl)cc32)c(=N)s1`, the half-inhibitory concentration (IC50) in data set [1] is 245 µg/mL (≈ 588 µM). Besides, the selectivity ratio in data set [2] was found to be 306. In addition, the MIC in data set [3] turned out to be 0.8 µg/mL (≈ 1.92 µM). Moreover, the zone of inhibition at 75 µg/mL was found to be 12 mm in data set [4], 10 mm in data set [6] and 12 mm in [8]. Also, the zone of inhibition at 50 µg/mL in data set [5] is 8 mm; in data set [7] it was 8 mm; in data set [9] it was 10 mm.

In data set [1], `Cc1nn(CC(=O)N2c3ccccc3Sc3ccc(Cl)cc32)c(=N)s1` showed an IC50 of 470 µg/mL (≈ 1210 µM). For the same compound, the selectivity ratio in data set [2] is 294. In [3], this compound displayed an MIC of 1.6 µg/mL (≈ 4.11 µM). The zone of inhibition at 75 µg/mL in data set [4] is 16 mm; in data set [6], 13 mm; in data set [8] it was 13 mm. In addition, the figures for the zone of inhibition at 50 µg/mL in data set [5], in [7] and in [9] were 14 mm, 10 mm and 9 mm, respectively.

Regarding `O=C(O)c1cn(C2CC2)c2cc(N3CCNCC3)c(F)cc2c1=O` [CIPROFLOXACIN], the lowest concentration to inhibit growth in data set [3] (MIC) was 3.12 µg/mL (≈ 9.43 µM). For the same compound, the zone of inhibition at 75 µg/mL is 32 mm in [4], 26 mm in [6] and 21 mm in data set [8]. The values for the zone of inhibition at 50 µg/mL in data set [5], in [7] and in [9] were 27 mm, 21 mm and 18 mm, respectively.

In turn, `N=c1sc(-c2cccs2)nn1CC(=O)N1c2ccccc2Sc2ccc(C(F)(F)F)cc21` displayed an MIC in data set [3] of 50 µg/mL (≈ 102 µM). Further, the values for the zone of inhibition at 75 µg/mL in data set [4], in data set [6] and in [8] were 10 mm, 8 mm and 12 mm, respectively. In addition, the zone of inhibition at 50 µg/mL in data set [5] was determined as 8 mm; in [7], 5 mm; in [9] it was 8 mm.

`N=c1sc(-c2cccs2)nn1CC(=O)N1c2ccccc2Sc2ccc(Cl)cc21` yielded an MIC in data set [3] of 50 µg/mL (≈ 109 µM). Further, the results for the zone of inhibition at 75 µg/mL in data set [4] and in [8] were 8 mm and 11 mm, respectively. For the same compound, the zone of inhibition at 50 µg/mL amounted to 4 mm in data set [5] and 7 mm in data set [9]. In addition, the “inhibition zone (IZ)” value in [6] and in [7] was “inactive” throughout.

`CN[C@@H]1[C@H](O[C@H]2[C@H](O[C@H]3[C@H](O)[C@@H](O)[C@H](N=C(N)N)[C@@H](O)[C@@H]3N=C(N)N)O[C@@H](C)[C@]2(O)C=O)O[C@@H](CO)[C@H](O)[C@H]1O` [STREPTOMYCIN] came in with an MIC in data set [3] of 6.25 µg/mL (≈ 10.7 µM).

As to `Cc1ccc(-c2nn(CC(=O)N3c4ccccc4Sc4ccc(C(F)(F)F)cc43)c(=N)s2)cc1`, the minimal inhibitory concentration (MIC) in [3] came out at 50 µg/mL (≈ 100 µM). Moreover, the results for the zone of inhibition at 75 µg/mL in data set [4], in data set [6] and in data set [8] were 13 mm, 11 mm and 9 mm, respectively. Besides, the zone of inhibition at 50 µg/mL in data set [5] was found to be 11 mm; in [7], 9 mm; in data set [9], 6 mm.

For `N=c1sc(-c2cccs2)nn1CC(=O)N1c2ccccc2Sc2ccccc21`, 50 µg/mL (≈ 118 µM) was the least that counted as inhibitory in data set [3] (MIC). Moreover, the zone of inhibition at 75 µg/mL in [4] was found to be 7 mm; in data set [8], 4 mm. The results for the zone of inhibition at 50 µg/mL in data set [5] and in data set [9] were 6 mm and 2 mm, respectively. For the same compound, the “inhibition zone (IZ)” value in [6] and in data set [7] was “inactive” in each case.

With `NNC(=O)c1ccncc1` [ISONIAZID], in [3], the MIC stood at 0.1 µg/mL (≈ 0.729 µM).

For the compound `COc1ccc(-c2nn(CC(=O)N3c4ccccc4Sc4ccccc43)c(=N)s2)cc1OC`, 12.5 µg/mL (≈ 26.2 µM) was the least that counted as inhibitory in data set [3] (MIC). For the same compound, the zone of inhibition at 75 µg/mL in data set [4] came to 16 mm; in [6], 21 mm; in data set [8], 25 mm. Also, the figures for the zone of inhibition at 50 µg/mL in data set [5], in data set [7] and in data set [9] were 13 mm, 18 mm and 20 mm, respectively.
